Laboratory results as given in ChEMBL document CHEMBL3045568, “Novel 2-pyrazoline derivatives as potential anticonvulsant agents” (Med Chem Res, 2013).
Activity calls are given as the source filed them. The calls are words filed in the database; no cut-off is given here.

Assays:
Mus musculus [1] = assay: Neurotoxicity in albino Mus musculus (mouse) assessed as motor impairment at 300 mg/kg, ip after 4 hr relative to control; assay type: toxicity, organism-based; design: dose 300 mg/kg, route intraperitoneal; conditions: in vivo
Mus musculus [2] = assay: Anticonvulsant activity in albino Mus musculus (mouse) assessed as protection against maximal electroshock-induced seizures at 300 mg/kg, ip after 0.5 hr relative to control; assay type: functional, organism-based; design: dose 300 mg/kg
Mus musculus [3] = assay: Neurotoxicity in albino Mus musculus (mouse) assessed as motor impairment at 30 mg/kg, ip after 0.5 hr relative to control; assay type: toxicity, organism-based; design: dose 30 mg/kg, route intraperitoneal; conditions: in vivo
Mus musculus [4] = assay: Anticonvulsant activity in albino Mus musculus (mouse) assessed as protection against maximal electroshock-induced seizures at 300 mg/kg, ip after 4 hr relative to control; assay type: functional, organism-based; design: dose 300 mg/kg
Mus musculus [5] = assay: Anticonvulsant activity in albino Mus musculus (mouse) assessed as protection against subcutaneous pentylenetetrazol-induced seizures at 300 mg/kg, ip after 0.5 hr relative to control; assay type: functional, organism-based; design: dose 300 mg/kg
Mus musculus [6] = assay: Anticonvulsant activity in albino Mus musculus (mouse) assessed as protection against subcutaneous pentylenetetrazol-induced seizures at 100 mg/kg, ip after 0.5 hr relative to control; assay type: functional, organism-based; design: dose 100 mg/kg
Mus musculus [7] = assay: Neurotoxicity in albino Mus musculus (mouse) assessed as motor impairment at 100 mg/kg, ip after 0.5 hr relative to control; assay type: toxicity, organism-based; design: dose 100 mg/kg, route intraperitoneal; conditions: in vivo
Mus musculus [8] = assay: Anticonvulsant activity in albino Mus musculus (mouse) assessed as protection against maximal electroshock-induced seizures at 100 mg/kg, ip after 0.5 hr relative to control; assay type: functional, organism-based; design: dose 100 mg/kg
Mus musculus [9] = assay: Anticonvulsant activity in albino Mus musculus (mouse) assessed as protection against maximal electroshock-induced seizures at 30 mg/kg, ip after 4 hr relative to control; assay type: functional, organism-based; design: dose 30 mg/kg
Mus musculus [10] = assay: Anticonvulsant activity in albino Mus musculus (mouse) assessed as protection against maximal electroshock-induced seizures at 30 mg/kg, ip after 0.5 hr relative to control; assay type: functional, organism-based; design: dose 30 mg/kg
Mus musculus [11] = assay: Anticonvulsant activity in albino Mus musculus (mouse) assessed as protection against subcutaneous pentylenetetrazol-induced seizures at 30 mg/kg, ip after 4 hr relative to control; assay type: functional, organism-based; design: dose 30 mg/kg
Mus musculus [12] = assay: Anticonvulsant activity in albino Mus musculus (mouse) assessed as protection against subcutaneous pentylenetetrazol-induced seizures at 300 mg/kg, ip after 4 hr relative to control; assay type: functional, organism-based; design: dose 300 mg/kg
Mus musculus [13] = assay: Neurotoxicity in albino Mus musculus (mouse) assessed as motor impairment at 30 mg/kg, ip after 4 hr relative to control; assay type: toxicity, organism-based; design: dose 30 mg/kg, route intraperitoneal; conditions: in vivo
Mus musculus [14] = assay: Anticonvulsant activity in albino Mus musculus (mouse) assessed as protection against maximal electroshock-induced seizures at 100 mg/kg, ip after 4 hr relative to control; assay type: functional, organism-based; design: dose 100 mg/kg
Mus musculus [15] = assay: Neurotoxicity in albino Mus musculus (mouse) assessed as motor impairment at 100 mg/kg, ip after 4 hr relative to control; assay type: toxicity, organism-based; design: dose 100 mg/kg, route intraperitoneal; conditions: in vivo
Mus musculus [16] = assay: Anticonvulsant activity in albino Mus musculus (mouse) assessed as protection against subcutaneous pentylenetetrazol-induced seizures at 100 mg/kg, ip after 4 hr relative to control; assay type: functional, organism-based; design: dose 100 mg/kg
Mus musculus [17] = assay: Anticonvulsant activity in albino Mus musculus (mouse) assessed as protection against subcutaneous pentylenetetrazol-induced seizures at 30 mg/kg, ip after 0.5 hr relative to control; assay type: functional, organism-based; design: dose 30 mg/kg
[18] = Partition coefficient, log P of the compound; assay type: physicochemical; conditions: octanol/water
Mus musculus [19] = assay: Neurotoxicity in albino Mus musculus (mouse) assessed as motor impairment at 300 mg/kg, ip after 0.5 hr relative to control; assay type: toxicity, organism-based; design: dose 300 mg/kg, route intraperitoneal; conditions: in vivo
Mus musculus [20] = assay: Anticonvulsant activity in albino Mus musculus (mouse) assessed as protection against subcutaneous pentylenetetrazol-induced seizures at 30 mg/kg, sc after 4 hr relative to control; assay type: functional, organism-based; design: dose 30 mg/kg
Mus musculus [21] = assay: Neurotoxicity in albino Mus musculus (mouse) assessed as motor impairment at 30 mg/kg, sc after 0.5 hr relative to control; assay type: toxicity, organism-based; design: dose 30 mg/kg, route subcutaneous; conditions: in vivo
Mus musculus [22] = assay: Neurotoxicity in albino Mus musculus (mouse) assessed as motor impairment at 30 mg/kg, sc after 4 hr relative to control; assay type: toxicity, organism-based; design: dose 30 mg/kg, route subcutaneous; conditions: in vivo
Mus musculus [23] = assay: Anticonvulsant activity in albino Mus musculus (mouse) assessed as protection against subcutaneous pentylenetetrazol-induced seizures at 30 mg/kg, sc after 0.5 hr relative to control; assay type: functional, organism-based; design: dose 30 mg/kg
Mus musculus [24] = assay: Anticonvulsant activity in albino Mus musculus (mouse) assessed as protection against maximal electroshock-induced seizures at 30 mg/kg, sc after 0.5 hr relative to control; assay type: functional, organism-based; design: dose 30 mg/kg
Mus musculus [25] = assay: Anticonvulsant activity in albino Mus musculus (mouse) assessed as protection against maximal electroshock-induced seizures at 30 mg/kg, sc after 4 hr relative to control; assay type: functional, organism-based; design: dose 30 mg/kg

Row | SMILES | Activity (Mus musculus [1]) | Activity (Mus musculus [2]) | Activity (Mus musculus [3]) | Activity (Mus musculus [4]) | Activity (Mus musculus [5]) | Activity (Mus musculus [6]) | Activity (Mus musculus [7]) | Activity (Mus musculus [8]) | Activity (Mus musculus [9]) | Activity (Mus musculus [10]) | Activity (Mus musculus [11]) | Activity (Mus musculus [12]) | Activity (Mus musculus [13]) | Activity (Mus musculus [14]) | Activity (Mus musculus [15]) | Activity (Mus musculus [16]) | Activity (Mus musculus [17]) | logP [18] | Activity (Mus musculus [19]) | other results
1 | NC(=S)N1N=C(c2ccccn2)CC1c1ccc(Cl)cc1 (centres undefined) | Non-toxic | Active | Non-toxic | Active | Active | inactive | Non-toxic | Active | inactive | inactive | inactive | inactive | Non-toxic | inactive | Non-toxic | inactive | inactive | 4.21 |  | 
2 | NC(=S)N1N=C(c2ccccn2)CC1c1cccc2ccccc12 (centres undefined) | Non-toxic | Active | Non-toxic | Active | Active | Active | Non-toxic | Active | inactive | Active | inactive | Active | Non-toxic | Active | Non-toxic | inactive | inactive | 4.51 | Non-toxic | 
3 | CCNC(=S)N1N=C(c2ccccn2)CC1c1cccc(Cl)c1 (centres undefined) | Non-toxic | Active | Non-toxic | inactive | Active | inactive | Non-toxic | Active | inactive | inactive | inactive | inactive | Non-toxic | inactive | Non-toxic | inactive | inactive | 3.2 |  | 
4 | CCNC(=S)N1N=C(c2ccccn2)CC1c1ccc(Cl)cc1 (centres undefined) | Non-toxic | Active | Non-toxic | inactive | Active | inactive | Non-toxic | Active | inactive | inactive | inactive | inactive | Non-toxic | inactive | Non-toxic | inactive | inactive | 3.64 | Non-toxic | 
5 | NC(=S)N1N=C(c2ccccn2)CC1c1ccc(OCc2ccccc2)cc1 (centres undefined) |  | inactive |  | inactive | inactive | inactive | Toxic | inactive | inactive | inactive | inactive | inactive | Non-toxic | inactive |  | inactive | inactive | 1.17 | Toxic | 
6 | CCNC(=S)N1N=C(c2ccccn2)CC1c1cccc2ccccc12 (centres undefined) | Non-toxic | Active | Non-toxic | Active | Active | Active | Non-toxic | Active | inactive | inactive | inactive | Active | Non-toxic | inactive | Non-toxic | inactive | inactive | 4.7 | Non-toxic | 
7 | NC(=S)N1N=C(c2ccccn2)CC1c1cccc(Cl)c1 (centres undefined) | Non-toxic | Active | Non-toxic | Active | Active | inactive | Non-toxic | Active | inactive | Active | inactive | Active | Non-toxic | inactive | Non-toxic | inactive | inactive | 4.15 |  | 
8 | CCNC(=S)N1N=C(c2ccccn2)CC1c1ccc(OC)cc1 (centres undefined) | Non-toxic | inactive | Non-toxic | inactive | Active | Active | Non-toxic | inactive | inactive | inactive | inactive | Active | Non-toxic | inactive | Non-toxic | inactive | Active | 2.92 | Non-toxic | 
9 | CCNC(=S)N1N=C(c2ccccn2)CC1c1ccc(OCc2ccccc2)cc1 (centres undefined) | Non-toxic | Active | Non-toxic | inactive | Active | inactive | Non-toxic | Active | inactive | inactive | inactive | inactive | Non-toxic | inactive | Non-toxic | inactive | inactive | 1.46 |  | 
10 | CCC1(c2ccccc2)C(=O)NC(=O)NC1=O [PHENOBARBITAL] |  |  |  |  |  |  |  |  |  |  |  |  |  |  |  |  |  |  |  | Activity (Mus musculus [20]): Active; Activity (Mus musculus [21]): Non-toxic; Activity (Mus musculus [22]): Non-toxic; Activity (Mus musculus [23]): Active; Activity (Mus musculus [24]): Active; Activity (Mus musculus [25]): Active
11 | COc1ccc(C2CC(c3ccccn3)=NN2C(N)=S)cc1 (centres undefined) | Non-toxic | inactive | Non-toxic | inactive | Active | Active | Non-toxic | inactive | inactive | inactive | inactive | inactive | Non-toxic | inactive | Non-toxic | inactive | inactive | 2.82 | Non-toxic | 
